Counter-ions that a name gives are not always drawn.
The compounds below were run on Aorta (assay: Vasorelaxant activity in Sprague-Dawley rat aortic artery assessed as reduction in phenylephrine-induced contractions).
Assay type: functional, tissue-based

Row | EC50 | SMILES
1 | > 10 µM | CC[C@]12CCCN3CCc4c(n(c5ccccc45)[C@@H](OC)C1)[C@@H]32
2 | > 10 µM | C[C@@H]1C(=O)O[C@]23N4CC=C[C@]12C[C@@H]1C(=O)Nc2ccccc2[C@@]13CC4
3 | 2.8 µM | CC[C@]12C=CCN3CCc4c(n(c5cc(O)ccc45)[C@@](O)(C(=O)OC)C1)[C@@H]32
4 | > 10 µM | COC(=O)[C@@H](C)[C@]12C=CCN3CC[C@@]4(c5ccccc5NC(=O)[C@H]4C1)[C@@H]32
5 | > 10 µM | CC[C@]12CC(=O)N3CC[C@]4(C(=C(C(=O)OC)C1)Nc1cc(O)ccc14)[C@@H]32
6 | > 10 µM | CC[C@@]12CC(C(=O)OC)=C3Nc4cc(O)ccc4[C@@]34CCN(C(=O)[C@H]3O[C@H]31)[C@@H]24
7 | > 10 µM | CC[C@]12CCC[N+]3([O-])CC[C@]4(C(=C(C(=O)OC)C1)Nc1cc(O)ccc14)[C@H]23 (some centres not stated)
8 | 1.9 µM | CC[C@]12C=CCN3CCc4c(n(c5ccccc45)[C@@](O)(C(=O)OC)C1)[C@@H]32
9 | 0.8 µM | CC[C@]12C=CC(=O)N3CC[C@]4(C(=C(C(=O)OC)C1)Nc1ccccc14)[C@@H]32
10 | 2.4 µM | CC[C@]12C=CCN3CCc4c(n(c5cc(O)ccc45)[C@](O)(C(=O)OC)C1)[C@@H]32
11 | 2.2 µM | CC[C@]12C=CCN3CCc4c(n(c5cc(OC)ccc45)[C@@](O)(C(=O)OC)C1)[C@@H]32
12 | > 10 µM | COC(=O)[C@@H]1C[C@@]23CCC[N+]4([O-])CC[C@@]5(c6ccccc6N[C@]15CC2)[C@H]34 (some centres not stated)
13 | 1.9 µM | CC[C@]12C=CCN3CCc4c(n(c5cc(OC)ccc45)[C@](O)(C(=O)OC)C1)[C@@H]32
14 | 3.8 µM | CC[C@]12C=CCN3CCc4c(n(c5ccccc45)[C@](O)(C(=O)OC)C1)[C@@H]32
15 | > 10 µM | CC[C@]12CCCN3CC[C@]4(C(=C(C(=O)OC)C1)Nc1cc(O)ccc14)[C@@H]32
16 | > 10 µM | COC(=O)[C@@H]1C[C@@]23CCCN4CC[C@@]5(c6ccccc6N[C@]15CC2)[C@@H]43
17 | > 10 µM | C[C@H](O)[C@@]12C[C@@H](C(N)=O)c3[nH]c4ccccc4c3CCN(C[C@H](O)[C@H]1O)C2=O
18 | 0.1 µM | Cc1ccc(N(CC2=NCCN2)c2cccc(O)c2)cc1 [PHENTOLAMINE MESYLATE]
19 | > 10 µM | CC[C@]12CCCN3CCc4c(n(c5ccccc45)[C@@H](O)C1)[C@@H]32 [VINCANOL]

Row | SMILES | EC50
20 | C[C@@H]1C(=O)[C@@]23C[C@@]14C=CCN1CC[C@@]2(c2ccccc2NC3=O)[C@@H]14 | > 10 µM
21 | C[C@H]1C(=O)[C@@]23C[C@@]14C=CCN1CC[C@@]2(c2ccccc2NC3=O)[C@@H]14 | > 10 µM
22 | CC[C@]12C=CCN3CC[C@]4(C(=C(C(=O)OC)C1)Nc1ccccc14)[C@@H]32 [TABERSONINE] | > 10 µM

Reference: ChEMBL document CHEMBL4665703, “Structurally Diverse Indole Alkaloids with Vasorelaxant Activity from Melodinus hemsleyanus” (J Nat Prod, 2020)
